The text below walks through data of PubChem BioAssay (NCI).

Where “and” joins values, the source holds several entries; their conditions need not be identical. Identical values can stand only once.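 Where inhibition never reached the appropriate level, the endpoint shown equals the highest concentration tested. Otherwise, values were interpolated linearly from a five-concentration, 48-hour dose response in 96-well plates. GI50 is the concentration that inhibits growth by half. TGI denotes the concentration required for complete inhibition of growth.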

Among the test systems are HOP-92 NSCLC; NCI-H226 lung; SN12C renal; MDA-N; SK-MEL-5 melanoma; T-47D breast; SK-MEL-28 melanoma; SNB-19 CNS; EKVX NSCLC; SR leukemia.
Common to all, as to assay: NCI-60 cell line screen, 48 h

In the case of `O=C1C(Cl)=C(Nc2ccc(S(=O)(=O)Nc3ccccn3)cc2)C(=O)c2ccccc21`, the TGI was 15.4 µM with HOP-92 NSCLC; 42.1 µM in the assay on NCI-H226 lung; 30.4 µM with SN12C renal; 13.9 µM in the assay on MDA-N; 11.4 µM with SK-MEL-5 melanoma; 39.7 µM in the assay with T-47D breast. In addition, the TGI turned out to be 42.9 µM with SK-MEL-28 melanoma, 38.7 µM in the assay with SNB-19 CNS, 31.7 µM in the assay on EKVX NSCLC and 16.2 µM in the assay with SR leukemia.
As to `O=[N+]([O-])c1cc(-c2nc(-c3ccccc3)c(-c3ccccc3)[nH]2)c(O)c([N+](=O)[O-])c1`, the TGI in the assay on HOP-92 NSCLC is 36.9 µM; in the assay with NCI-H226 lung, 40.7 µM; with SN12C renal it was 77.4 µM; in the assay with MDA-N it was greater than 100 µM; in the assay with SK-MEL-5 melanoma it was 36 µM; in the assay with T-47D breast it was 68.3 µM. The TGI in the assay with SK-MEL-28 melanoma was greater than 100 µM; in the assay with SNB-19 CNS, greater than 100 µM; in the assay on EKVX NSCLC it was 58.9 µM; in the assay with SR leukemia it was 58.7 µM.
As to `CCCCCCCCCCNC(=O)CCC(NC(=O)c1ccc(N(C)Cc2cnc3nc(N)nc(N)c3n2)cc1)C(=O)NCCCCCCCCCC` (stereo not given), the TGI in the assay on HOP-92 NSCLC is 27.1 µM; in the assay on NCI-H226 lung it was 59.3 µM; with SN12C renal, greater than 57.2 µM; with MDA-N it was 21.9 µM; with SK-MEL-5 melanoma, 12.6 µM; with T-47D breast, 40.3 µM. Moreover, the TGI in the assay with SK-MEL-28 melanoma was 23.6 µM; with SNB-19 CNS, 31.7 µM; in the assay with EKVX NSCLC, greater than 78.3 µM; in the assay with SR leukemia it was greater than 24.5 µM.
Turning to `CCOC(=O)c1ccc(N=c2sc3ccccc3nc2Nc2ccc(C(=O)OCC)cc2)cc1`, the TGI in the assay with HOP-92 NSCLC, with NCI-H226 lung, with SN12C renal, in the assay with MDA-N, in the assay on SK-MEL-5 melanoma and with T-47D breast was greater than 100 µM throughout. The TGI in the assay with SK-MEL-28 melanoma, in the assay on SNB-19 CNS, in the assay with EKVX NSCLC and in the assay with SR leukemia was greater than 100 µM throughout.
As for `CCCCCCCCCCCCC(O)[C@H]1CC[C@H](C(O)CCCCCC(=O)CCCCC2CC(C(C)=O)C(=O)O2)O1` (stereo not given in full), the GI50 is 3.23 µM in the assay with HOP-92 NSCLC; 3.48 µM in the assay with NCI-H226 lung; 12.9 µM in the assay with SN12C renal; 7.67 µM in the assay on MDA-N; 1.11 µM in the assay on SK-MEL-5 melanoma; 3.84 µM in the assay with T-47D breast. The GI50 in the assay with SK-MEL-28 melanoma was 4.06 µM; in the assay with SNB-19 CNS it was 4.56 µM; in the assay with EKVX NSCLC, 3.24 µM; in the assay with SR leukemia it was 1.76 µM. In addition, the TGI was 31.7 µM with HOP-92 NSCLC; 46.1 µM with NCI-H226 lung; 29 µM with SN12C renal; 23.2 µM with MDA-N; 4.97 µM and 20.4 µM in the assay with SK-MEL-5 melanoma; greater than 41.5 µM in the assay with T-47D breast. Moreover, the TGI with SK-MEL-28 melanoma was 66.2 µM; with SNB-19 CNS, 73.9 µM; with EKVX NSCLC, 54.8 µM; in the assay on SR leukemia it was greater than 38.1 µM.
With `COC(=O)C1OC(O[C@H]2CC[C@]3(C)[C@H]4CC=C5[C@@H]6CC(C)(C)CC[C@]6(C(=O)OC6OCC(O)C(O)C6OC6OC(C)C(OC7OCC(O)C(O)C7O)C(O)C6O)CC[C@@]5(C)[C@]4(C)CC[C@H]3C2(C)C)C(O)C(O)C1O` (stereo not given in full), the TGI in the assay on HOP-92 NSCLC was 30.9 µM and 39.4 µM; with NCI-H226 lung, 37.7 µM and 37.2 µM; in the assay on SN12C renal, 27.1 µM and 31.2 µM; in the assay on MDA-N, 29.3 µM and 33.1 µM; in the assay on SK-MEL-5 melanoma, 31.8 µM and 32.5 µM; with T-47D breast, > 100 µM and 54.2 µM. Besides, the TGI with SK-MEL-28 melanoma is 27.8 µM and 30.5 µM; in the assay on SNB-19 CNS it was 31.2 µM and 27.2 µM; in the assay on EKVX NSCLC, 33.7 µM and 32 µM; with SR leukemia it was 32 µM and 24.9 µM.
With `Nc1onc2c1Cc1c(noc1N)-c1ccccc1-2`, the TGI in the assay on HOP-92 NSCLC was 94.6 µM; in the assay on NCI-H226 lung, greater than 100 µM; with SN12C renal it was greater than 100 µM; in the assay on MDA-N, greater than 100 µM; with SK-MEL-5 melanoma it was greater than 100 µM; in the assay with T-47D breast it was greater than 100 µM. Besides, the TGI in the assay on SK-MEL-28 melanoma is greater than 100 µM; in the assay on SNB-19 CNS, greater than 100 µM; in the assay with EKVX NSCLC it was 66.1 µM; in the assay with SR leukemia it was greater than 100 µM.
For `CCOC(=O)c1c(N2CCOCC2)[nH]c(=O)c(C(c2ccco2)c2c(O)c(C(=O)OCC)c(N3CCOCC3)[nH]c2=O)c1O`, the TGI in the assay with HOP-92 NSCLC, in the assay on NCI-H226 lung, in the assay on SN12C renal, in the assay with MDA-N, in the assay with SK-MEL-5 melanoma and in the assay on T-47D breast was greater than 100 µM in each case. The TGI with SK-MEL-28 melanoma, in the assay with SNB-19 CNS, in the assay on EKVX NSCLC and with SR leukemia was greater than 100 µM each time.
For `N[C@H]1CCCC[C@@H]1N1C(=O)c2ccccc2C1(O)c1ccc(Cl)cc1` (stereo not given in full), the TGI was found to be 24.9 µM with HOP-92 NSCLC; 31.3 µM in the assay on NCI-H226 lung; 27 µM with SN12C renal; 25 µM with MDA-N; 22.5 µM with SK-MEL-5 melanoma; 14.7 µM in the assay with T-47D breast. For the same compound, the TGI in the assay with SK-MEL-28 melanoma is 10.4 µM; in the assay on SNB-19 CNS it was 27.6 µM; in the assay on EKVX NSCLC, 30.1 µM; in the assay on SR leukemia it was 29.9 µM.
Regarding `NC(=S)N/N=C\c1nccc2ccccc12`, the TGI in the assay with HOP-92 NSCLC was 4.56 µM; in the assay on NCI-H226 lung, 0.54 µM; in the assay on SN12C renal, 0.779 µM; in the assay with MDA-N, greater than 100 µM; in the assay with SK-MEL-5 melanoma, 3.7 µM; in the assay with T-47D breast it was greater than 100 µM. In addition, the TGI in the assay with SK-MEL-28 melanoma was 0.951 µM; in the assay on SNB-19 CNS, greater than 100 µM; with EKVX NSCLC it was 2.21 µM; with SR leukemia it was 0.731 µM.
For the compound `Cc1ccc(S(=O)(=O)NNCNC(=O)c2ccccc2)cc1`, the TGI in the assay with HOP-92 NSCLC, in the assay on NCI-H226 lung, with SN12C renal, with MDA-N, in the assay on SK-MEL-5 melanoma and in the assay with T-47D breast was greater than 100 µM in each case. Besides, the TGI in the assay on SK-MEL-28 melanoma was greater than 100 µM; in the assay on SNB-19 CNS, greater than 100 µM; in the assay on EKVX NSCLC, greater than 100 µM; in the assay on SR leukemia, 33.1 µM.
